From patent US10167262B2, “Herbicidal substituted 3-arylpyrazoles” (FMC CORPORATION, priority 2014, dated 2019) come the findings set out here.

Structures are written as SMILES.

Type in all cases: in vivo
In assay [1] the test system is velvetleaf (Abutilon theophrasti). Put plainly: Test A pre-/postemergence greenhouse herbicide test, visual injury rating 0-100. From the text:
(§1) Seeds of plant species selected from barnyardgrass (Echinochloa crus-galli), large (Lg) crabgrass (Digitaria sanguinalis), giant foxtail (Setaria faberii), morningglory (Ipomoea spp.), pigweed (Amaranthus retroflexus), velvetleaf (Abutilon theophrasti), wheat (Triticum aestivum), and corn (Zea mays) were planted into a blend of loam soil and sand and treated preemergence with a directed soil spray using test chemicals formulated in a non-phytotoxic solvent mixture which included a surfactant. At the same time these species were also treated with postemergence applications of test chemicals formulated in the same manner. Plants ranged in height from 2 to 10 cm and were in the one- to two-leaf stage for the postemergence treatment. Treated plants and untreated controls were maintained in a greenhouse for approximately 10 days, after which time all treated plants were compared to untreated controls and visually evaluated for injury. Plant response ratings, summarized in Table A, are based on a 0 to 100 scale where 0 is no effect and 100 is complete control. A dash (-) response means no test result.

For assay [2], the system named is giant foxtail (Setaria faberii). The assay is described as above.
From the text: as §1

The subject of assay [3] is barnyardgrass (Echinochloa crus-galli). The assay is described as above.
From the text: as §1

For assay [4], the system named is morningglory (Ipomoea spp.). The assay is described as above.
From the text: as §1

Assay [5] concerns pigweed (Amaranthus retroflexus). Described as above.
From the text: as §1

The subject of assay [6] is large (Lg) crabgrass (Digitaria sanguinalis). The assay is described as above.
From the text: as §1

The test system of assay [7] is wheat (Triticum aestivum). The assay is described as above.
From the text: as §1

For a further assay, the system named is corn (Zea mays). The assay is described as above.
From the text: as §1

The subject of assay [8] is ducksalad (Heteranthera limosa). Kind of assay: Test B flooded paddy test, plant response rating 0-100. Conditions: Flood, 250 g ai/ha; scale 0 to 100 (0 no effect, 100 complete control); 13 to 15 days. From the text: (§2) At time of treatment, test pots were flooded to 3 cm above the soil surface, treated by application of test compounds directly to the paddy water, and then maintained at that water depth for the duration of the test. Treated plants and controls were maintained in a greenhouse for 13 to 15 days, after which time all species were compared to controls and visually evaluated. […] A dash (-) response means no test result.

The test system of assay [9] is sedge, umbrella (small-flower umbrella sedge, Cyperus difformis). The description is as above. To be noted: Flood, 250 g ai/ha; scale 0 to 100 (0 no effect, 100 complete control); 13 to 15 days.
From the text: as §2

Another assay deals with rice (Oryza sativa). Described as above. Conditions: Flood, 250 g ai/ha; scale 0 to 100 (0 no effect, 100 complete control); 13 to 15 days.
From the text: as §2

For `Cn1cc(C(=O)c2ccccc2)c(-c2cc(Cl)c(Cl)c(Cl)c2)n1` [Compound 11], the “Plant response rating (0 to 100 scale), Velvetleaf” value in assay [1] (Postemergence, 1000 g ai/ha) came out at 80; in [1] (Preemergence, 1000 g ai/ha), 70. The “Plant response rating (0 to 100 scale), Foxtail, Giant” value in assay [2] (Postemergence, 1000 g ai/ha) was found to be 0; in [2] (Preemergence, 1000 g ai/ha) it was 0. In addition, the “Plant response rating (0 to 100 scale), Barnyardgrass” value is listed as 0 in [3] (Postemergence, 1000 g ai/ha) and 0 in assay [3] (Preemergence, 1000 g ai/ha). Besides, the “Plant response rating (0 to 100 scale), Morningglory” value in assay [4] (Postemergence, 1000 g ai/ha) turned out to be 0; in [4] (Preemergence, 1000 g ai/ha) it was 0. For the same molecule, the “Plant response rating (0 to 100 scale), Pigweed” value in [5] (Postemergence, 1000 g ai/ha) is 90; in assay [5] (Preemergence, 1000 g ai/ha) it was 90. Besides, the “Plant response rating (0 to 100 scale), Crabgrass, Large” value in assay [6] (Postemergence, 1000 g ai/ha) was 0; in assay [6] (Preemergence, 1000 g ai/ha), 0. Also, the “Plant response rating (0 to 100 scale), Wheat” value in assay [7] (Postemergence, 1000 g ai/ha) is 0; in assay [7] (Preemergence, 1000 g ai/ha), 0. The “Plant response rating (0 to 100 scale), Corn” value in the assay on corn (Zea mays) (Postemergence, 1000 g ai/ha) is 0; with corn (Zea mays) (Preemergence, 1000 g ai/ha), 0. In addition, in assay [8], the “Plant response rating, Ducksalad” value came to 0. Besides, the “Plant response rating, Sedge, Umbrella” value in assay [9] turned out to be 0. Moreover, the “Plant response rating, Rice” value with rice (Oryza sativa) is reported as 0.

For `CCn1cc(C(=O)c2ccccc2)c(-c2cc(Cl)c(Cl)c(Cl)c2)n1` [Compound 12], the “Plant response rating (0 to 100 scale), Velvetleaf” value is 80 in assay [1] (Postemergence, 1000 g ai/ha) and 70 in assay [1] (Preemergence, 1000 g ai/ha). Also, the “Plant response rating (0 to 100 scale), Foxtail, Giant” value in assay [2] (Postemergence, 1000 g ai/ha) is 0; in [2] (Preemergence, 1000 g ai/ha) it was 0. In addition, the “Plant response rating (0 to 100 scale), Barnyardgrass” value was determined as 0 in assay [3] (Postemergence, 1000 g ai/ha) and 0 in [3] (Preemergence, 1000 g ai/ha). Further, the “Plant response rating (0 to 100 scale), Morningglory” value came out at 0 in assay [4] (Postemergence, 1000 g ai/ha) and 0 in [4] (Preemergence, 1000 g ai/ha). The “Plant response rating (0 to 100 scale), Pigweed” value amounted to 90 in assay [5] (Postemergence, 1000 g ai/ha) and 80 in [5] (Preemergence, 1000 g ai/ha). For the same molecule, the “Plant response rating (0 to 100 scale), Crabgrass, Large” value came out at 0 in [6] (Postemergence, 1000 g ai/ha) and 0 in assay [6] (Preemergence, 1000 g ai/ha). Also, the “Plant response rating (0 to 100 scale), Wheat” value in assay [7] (Postemergence, 1000 g ai/ha) is given as 0; in assay [7] (Preemergence, 1000 g ai/ha), 0. In addition, the “Plant response rating (0 to 100 scale), Corn” value with corn (Zea mays) (Postemergence, 1000 g ai/ha) is recorded as 0; with corn (Zea mays) (Preemergence, 1000 g ai/ha), 0. In addition, in [8], the “Plant response rating, Ducksalad” value is listed as 20. Further, the “Plant response rating, Sedge, Umbrella” value in [9] is given as 70. For the same molecule, the “Plant response rating, Rice” value in the assay on rice (Oryza sativa) is given as 0.

Turning to `FC(F)(F)Cn1cc(C(=NNc2ccccc2)c2ccccc2)c(-c2cc(Cl)cc(Cl)c2)n1` [Compound 34], the “Plant response rating (0 to 100 scale), Velvetleaf” value in assay [1] (Postemergence, 125 g ai/ha) was determined as 10; in assay [1] (Postemergence, 500 g ai/ha), 30; in [1] (Preemergence, 500 g ai/ha), 0. Also, the “Velvetleaf plant response rating (0 = no effect, 100 = complete control)” value in assay [1] (Preemergence, 125 g ai/ha) turned out to be 0. The “Plant response rating (0 to 100 scale), Foxtail, Giant” value is given as 0 in assay [2] (Postemergence, 125 g ai/ha); 0 in assay [2] (Postemergence, 500 g ai/ha); 0 in [2] (Preemergence, 500 g ai/ha). Besides, the “Foxtail, Giant plant response rating (0 = no effect, 100 = complete control)” value in [2] (Preemergence, 125 g ai/ha) is recorded as 0. Besides, the “Plant response rating (0 to 100 scale), Barnyardgrass” value in assay [3] (Postemergence, 125 g ai/ha) was 0; in assay [3] (Postemergence, 500 g ai/ha) it was 0; in [3] (Preemergence, 500 g ai/ha), 0. For the same molecule, in [3] (Preemergence, 125 g ai/ha), the “Barnyardgrass plant response rating (0 = no effect, 100 = complete control)” value was found to be 0. For the same molecule, the “Plant response rating (0 to 100 scale), Morningglory” value in assay [4] (Postemergence, 125 g ai/ha) was determined as 0; in assay [4] (Postemergence, 500 g ai/ha) it was 0; in [4] (Preemergence, 500 g ai/ha), 0. For the same molecule, the “Morningglory plant response rating (0 = no effect, 100 = complete control)” value in assay [4] (Preemergence, 125 g ai/ha) was found to be 0. The “Plant response rating (0 to 100 scale), Pigweed” value in assay [5] (Postemergence, 125 g ai/ha) was determined as 0; in assay [5] (Postemergence, 500 g ai/ha), 20; in assay [5] (Preemergence, 500 g ai/ha), 0. The “Pigweed plant response rating (0 = no effect, 100 = complete control)” value in assay [5] (Preemergence, 125 g ai/ha) is given as 0. Also, the “Plant response rating (0 to 100 scale), Crabgrass, Large” value in [6] (Postemergence, 125 g ai/ha) was determined as 0; in assay [6] (Postemergence, 500 g ai/ha), 0; in assay [6] (Preemergence, 500 g ai/ha), 0. Also, the “Crabgrass, Large plant response rating (0 = no effect, 100 = complete control)” value in assay [6] (Preemergence, 125 g ai/ha) was determined as 0. The “Plant response rating (0 to 100 scale), Wheat” value in [7] (Postemergence, 125 g ai/ha) was 0; in assay [7] (Postemergence, 500 g ai/ha) it was 0; in assay [7] (Preemergence, 500 g ai/ha), 0. Besides, in assay [7] (Preemergence, 125 g ai/ha), the “Wheat plant response rating (0 = no effect, 100 = complete control)” value is reported as 0. The “Plant response rating (0 to 100 scale), Corn” value with corn (Zea mays) (Postemergence, 125 g ai/ha) is recorded as 0; in the assay with corn (Zea mays) (Postemergence, 500 g ai/ha), 0; in the assay on corn (Zea mays) (Preemergence, 500 g ai/ha) it was 0. In addition, in the assay with corn (Zea mays) (Preemergence, 125 g ai/ha), the “Corn plant response rating (0 = no effect, 100 = complete control)” value is on record as 0.
